Laboratory results as given in patent publication US8574834B2, “Method for predicting the response to a therapy” (Index Pharmaceuticals AB, priority 2007, dated 2013).

System: Tsp1 gene
Assay: Tsp1 gene expression in PBMC after 48 hrs stimulation, real-time PCR
Type: cell-based, human
Details: 10^-6 M Dex, normalised to basal expression
Text: FIG. 2 depicts the average value of expression level of Tsp1 gene in PBMC in response to 48 hrs stimulation with IDX0150 alone, Dex alone, or IDX0150 and Dex combination as quantified by real-time PCR. The experimental conditions and data handling were as described in FIG. 1 and Example 1.
FIG. 5 depicts the average value of expression level of Tsp1 gene in PBMC in response to 48 hrs stimulation with IDX0150 alone, Dex alone, or IDX0150 and Dex combination as quantified by real-time PCR. The experimental conditions and data handling were as described in FIG. 4 and Example 1.
Peripheral blood mononuclear cells (PMBC) were isolated from blood samples of seven steroid resistant asthma or ulcerative colitis patients and ten healthy volunteers by density gradient centrifugation using Ficoll-Paque Plus (Pharmacia Biotech), washed three times in buffered saline solution (PBS), and resuspended in complete RPMI 1640 (Sigma/Gibco) containing 15% heat inactivated fetal bovine serum (FCS) (Gibco, Life Technologies), 100 U/ml penicillin, 100 μg/ml streptomycin (Life Technologies), 2 mM L-glutamine (Sigma), gentamycin 25 ug/ml (Sigma) and 5 mM Hepes (Gibco, Life Technologies). Cells were counted using 0.4% Trypan blue solution (Sigma Aldrich). On average the yield of PBMC was in range of 60-120×10^6 cells per donor sample. […]

C[C@@H]1C[C@H]2[C@@H]3CCC4=CC(=O)C=C[C@]4(C)[C@@]3(F)[C@@H](O)C[C@]2(C)[C@@]1(O)C(=O)CO [dexamethasone]
induction of Tsp1: 3-5 fold
